Values quoted from earlier work as cited in patent publication US4324553A, “Hair dyeing compositions containing at least one 2,4-diamino-alkylbenzene as coupler” (L'Oreal, priority 1979, dated 1982).

System: Salmonella typhimurium (TA 1538 and TA 98)
Details: Salmonella typhimurium TA 1538 and TA 98, with S9 mix induced by Aroclor 1254; prior-art statement

Structure (SMILES)	mutagenic activity as evaluated in the Ames test
CCc1ccc(N)cc1N [2,4-Diamino-ethylbenzene]	high mutagenic activity
Cc1ccc(N)cc1N [2,4-diaminotoluene]	very high mutagenic activity
